From patent EP0076713B1, “Aminomethyl-1H-indole-4-methanol derivatives and their salts, process and intermediates for their preparation, their use as medicines and compositions containing them” (ROUSSEL-UCLAF, priority 1981, dated 1983)
Where a name gives a salt, the structure may show the parent alone.

Key:
Format in all cases: in vivo
souris = experiment: Acute toxicity, oral administration in mice
Excerpt: On a évalué les doses létales DLo des différents composés testés après administration par voie orale chez la souris.
On apelle DLo la dose maximale ne provoquant aucune mortalité en 8 jours.

[1] = test system: rats mâles de souche WISTAR; experiment: Hypotensive activity in anaesthetised rats (carotid arterial pressure, intravenous administration); settings: relative to initial control pressure
Procedure: A) Détermination de l'activité hypotensive L'activité hypotensive a été étudiée sur des rats mâles de souche WISTAR pensant 300 g environ et anesthésiés au nembutal (50 mg/kg par voie intraveineuse).
Le produit testé a été administré par voie intraveineuse dans la veine jugulaire.
La pression artérielle carotidienne a été mesurée avant et après administration du produit testé.
Le tableau ci-après indique les variations exprimées en pourcentage de la pression artérielle après administration du produit testé par rapport à la pression artérielle témoin initiale: […]

[2] = test system: ulcéres au niveau de l'estomac, par ligature du pylore; experiment: Antiulcer activity, Shay technique (gastric ulcers induced by pylorus ligation); settings: pylorus-ligated rats, about 16 hours after treatment
Excerpt: La technique utilisée est décrite par SHAY et al dans Gastroenterology, 5, 43 (1945).
La technique de SHAY consiste à induire chez ez des rats des ulcéres au niveau de l'estomac, par ligature du pylore.
Les animaux sont anesthésiés à l'éther. Une incision longitudinale est faite 1 cm environ au-dessous du sternum, la partie glandulaire de l'estomac et le duodénum sont mis à jour et une ligature est posée quelques mm au-dessous du pylore. Le plan musculaire est laissé tel quel et la peau est suturée par deux agrafes.
Les animaux reçoivent aussitôt après le dispersif ou la substance à étudier, par voie buccale, sous un volume de 0,5 ml/100 g, et sont maintenus sans nourriture ni boisson, jusqu'au sacrifice par saignée carotidienne qui a lieu environ 16 heures après le traitement.
Avant de prélèver l'estomac, une ligature est possé au-dessus du cardia.
Le liquide gastrique est recueilli afin d'en mesure le pH.
L'estomac est ensuite ouvert selon la grande courbure, rincé dans le sérum physiologique et étalé sur du papier millimétrique pour être examiné sous la loupe binoculaire.
On évalue macroscopiquement la gravité des lésions qui est côtée de 0 à 4 pour chaque estomac.
On détermine pour chaque lot de rat, l'intensité moyenne des ulcérations et on calcule la protection en rapportant l'index moyen du groupe à l'index moyen du groupe témoin.
On détermine également les valeurs de pH du liquide gastrique pour les animaux traités et les animaux témoins.

[3] = test system: rats mâles spontanément hypertendus (souche Okamoto); experiment: Antihypertensive activity in spontaneously hypertensive rats (tail arterial pressure, oral administration); settings: 1 mg/kg oral, relative to initial control pressure; for Variation % de la pression arterielle 1 heure après l'administration: 1 hour; for Variation % de la pression arterielle 4 heures après l'administration: 4 hours
Excerpt: L'action antihypertensive a été étudiée sur des rats mâles spontanément hypertendus (souche Okamoto) âgés de 20 semaines pesant 300 à 320g.
Le produit a été administré par voie orale 48 heures après la pose d'un cathéter intracarotidien.
La pression artérielle a été mesurée à la queue du rat au moyen d'un manchon pneumatique et à l'aide d'un transducteur piezo-électrique de pression. La pression a été mesurée avant et une heure, quatre heures et vingt-quatre heures après l'administration du produit.
Le tableau ci-après indique les variations exprimées en pourcentages de la pression artérielle, après administration du produit, par rapport à la pression témoin initiale.

[4] = oral, mice, maximal dose causing no mortality in 8 days
[5] = dose −0,1 mg/kg [sic], intravenous

Compound | DLo (souris; mouse, in vivo, po, 11520 min) | Variation % de la pression arterielle 1 minute après l'administration ([1]; 10 mg/kg intravenous) | Variation % de la pression arterielle 5 minutes après l'administration ([1]; 10 mg/kg intravenous) | Variation % de la pression arterielle 10 minutes après l'administration ([1]; 10 mg/kg intravenous) | Variation % de la pression arterielle 30 minutes après l'administration ([1]; 10 mg/kg intravenous) | DLo (souris; [4]) | Variation % de la pression arterielle 1 minute après l'administration ([1]; 1 mg/kg intravenous) | Variation % de la pression arterielle 5 minutes après l'administration ([1]; 1 mg/kg intravenous) | Variation % de la pression arterielle 10 minutes après l'administration ([1]; 1 mg/kg intravenous) | Variation % de la pression arterielle 30 minutes après l'administration ([1]; 1 mg/kg intravenous) | Variation % de la pression arterielle 10 minutes après l'administration ([1]; 0,1 mg/kg intravenous) | Variation % de la pression arterielle 1 minute après l'administration ([1]; 0,1 mg/kg intravenous) | Variation % de la pression arterielle 5 minutes après l'administration ([1]; 0,1 mg/kg intravenous) | Variation % de la pression arterielle 30 minutes après l'administration ([1]; 0,1 mg/kg intravenous) | also measured
oxalate neutre de 1'a-[[(1-éthylpropyl)amino]méthyl]-1 H-indole-4-méthanol [Exemple 7] | 80 mg/kg | −59% | −56% | −50% | −35% | – | – | – | – | – | – | – | – | – | –
NCC(O)c1cccc2[nH]ccc12 (stereo not drawn) [Exemple 1, Fumaratede 1α-(aminométhyl)-1H-indole-4-méthanol] | – | – | – | – | – | >1000 mg/kg | – | – | – | – | – | – | – | – | –
OC(CNCc1ccccc1)c1cccc2[nH]ccc12 (centres unmarked) [Exemple 8, Oxalate acidede 1'a[[(phénylméthyl)amino]méthyl]-1 H-indole-4-méthanol] | – | −38% | −21% | −21% | −15% | 100 mg/kg | −9% | −8% | −6% | −10% | – | – | – | – | –
OC(CNCC(O)c1cccc2[nH]ccc12)COc1ccccc1 (centres unmarked) [Exemple 10, a-[[(2-hydroxy-3-phénoxy-propyl)amino]méthyl]-1H-indole-4-méthanol] | > 400 mg/kg | – | – | – | – | – | −32% | −14% | −15% | −13% | – | – | – | – | –
CNCC(O)c1cccc2c1CCN2 (centres unmarked) [Exemple 6, a-(méthylamino)métyl-2,3-dihydro-1 H-indole-4-méthanol] | – | – | – | – | – | > 400 mg/kg | – | – | – | – | – | – | – | – | –
CNCC(O)c1cccc2[nH]ccc12 (centres unmarked) [Exemple 3, a-(méthylamino)méthyl-1 H-indole-4-méthanol] | – | – | – | – | – | 600 mg/kg | – | – | – | – | −5% | – | – | – | Variation % de la pression arterielle 1 minute après l'administration [1, 5]: +19%; Variation % de la pression arterielle 5 minutes après l'administration [1, 5]: −4%; Variation % de la pression arterielle 30 minutes après l'administration [1, 5]: −9%
CC(C)NCC(O)c1cccc2c1CCN2 (stereo not drawn) [Exemple 5, α-[[(1-méthyléthyl)amino]méthyl]2,3-dihydro-1H-indole-4-méthanol] | – | – | – | – | – | 200 mg/kg | −20% | −19% | −17% | −14% | −26% | −24% | −28% | −22% | Ulcération % de protection par rapport aux témoins ([2]; 0,4 mg/kg oral): 60%; pH du liquide gastrique animaux traités ([2]; 0,4 mg/kg oral, controls pH 2,2): 2,5; Ulcération % de protection par rapport aux témoins ([2]; 0,08 mg/kg oral): 66%; pH du liquide gastrique animaux traités ([2]; 0,08 mg/kg oral, controls pH 2,2): 2,6; Ulcération % de protection par rapport aux témoins ([2]; 2 mg/kg oral): 90%; pH du liquide gastrique animaux traités ([2]; 2 mg/kg oral, controls pH 2): 2,6; Variation % de la pression arterielle 1 heure après l'administration [3]: −27%; Variation % de la pression arterielle 4 heures après l'administration [3]: −24%; Variation % de la pression arterielle 24 heures après l'administration ([3]; 24 hours): −17%
OC(CNCCc1ccccc1)c1cccc2[nH]ccc12 (centres unmarked) [Exemple 9, Oxalate acidede 1'a-[[(2-phényléthyl)amino]méthyl]-1 H-indole-4-méthanol] | 80 mg/kg | −48% | −44% | −37% | −33% | – | −13% | −11% | −4% | −3% | – | – | – | – | –
CCCNCC(O)c1cccc2[nH]ccc12 (centres unmarked) [Exemple 11, Oxalatede 1'a[[(1-propyl)amino]méthyl]-1H-indole-4-méthanol] | – | – | – | – | – | 100 mg/kg | −22% | −33% | −33% | −30% | −12% | −11% | −12% | −13% | Ulcération % de protection par rapport aux témoins ([2]; 1 mg/kg oral): 48%; pH du liquide gastrique animaux traités ([2]; 1 mg/kg oral, controls pH 3,3): 3,2; Ulcération % de protection par rapport aux témoins ([2]; 5 mg/kg oral): 63%; pH du liquide gastrique animaux traités ([2]; 5 mg/kg oral, controls pH 3,0): 2,9
Oxalate neutre de 1'a[[(1-méthyléthyl)amino]méthyl]-1H-indole-4-méthanol [Exemple 2] | 200 mg/kg | – | – | – | – | – | −41% | −38% | −29% | −20% | −30% | −36% | −28% | −27% | Variation % de la pression arterielle 1 heure après l'administration [3]: −22%; Variation % de la pression arterielle 4 heures après l'administration [3]: −21%
